Article PMC11941939, “Tackling Prostate Cancer with Theranostic E5B9-Bombesin Target Modules (TMs): From Imaging to Treatment with UniCAR T-Cells” (International Journal of Molecular Sciences, 2025)
Where two headings read alike, the source gives them in different places. Starred links: 1 amine or outer side, 2 acyl side, 3 side chain; linkers in the order of their positions; H or OH if unused. Positions of bridges follow the written chain, without caps; N, C: chain ends. Non-standard residues stand in square brackets, D forms with d. Residues, ends and D or L forms follow the SMILES beside them. Chains are numbered I, II in the order given. *: point of attachment. NOTA(2S-Bn(4-NHCS)) = O=C(O)CN1CCN(CC(=O)O)C[C@H](Cc2ccc(NC(=S)*)cc2)N(CC(=O)O)CC1; X1 = O=C([C@H](CCCCn1nnc2c1-c1ccccc1CN([*:3])c1ccccc1-2)N[*:1])[*:2]; X2 = O=C(CCOCCOCCOCCOCCNC(=O)CCN1C(=O)CC([*:1])C1=O)NCCC(=O)[*:2]; γ4hIle = CC[C@H](C)[C@@H](CCC(=O)[*:2])N[*:1]; Tle = CC(C)(C)[C@H](N)C(=O)O; Ava = NCCCCC(=O)O; Sar = CNCC(=O)O

What was measured:
GRPR = biological target: T1, GRPR (Homo sapiens, UniProt P30550); assay: Competitive binding assay against 125I-Tyr4-bombesin in PC3 cells
T1 construct: Both cell lines express GRPR; endogenous in cells; host or cells: PC-3 cells (dimeric TM also tested in LNCaP cells)
Protocol: Then, ^125I-Tyr^4-BBN (0.05 nM final concentration) was added to each well, and the plates were incubated for 2 h at 4 °C. The cells were then rinsed twice with ice-cold phosphate-buffered saline (PBS) and harvested. The cells were placed on a Packard II gamma counter (PerkinElmer, Boston, MA, USA) to determine the cell-associated radioactivity. After decay correction, data were plotted using GraphPad Prism 9 Software (San Diego, CA, USA) using the sigmoidal dose–response equation, with counts per minute (cpm) of radioactivity bound versus the log of the concentration of NOTA-E5B9-BBN2 monomeric or dimeric TM for the determination of IC50 values. NOTA-E5B9-BBN2 dimeric TM was also tested in LNCaP cells. Gastrin-releasing peptide (GRP) served as the control.

PC3 cancer cells = type: cell-based, human; details: 48 h
Protocol: (§1) Standard chromium (^51Cr)-release cytotoxicity assays were performed to assess the killing of tumor cells by redirected UniCAR T-cells as previously described. Briefly, chromium-labeled target cells were incubated for 48 h with UniCAR T-cells at an effector-to-target cell (E:T) ratio of 5:1 in the absence or presence of different TM concentrations. The radioactive signal in the supernatants was measured using a MicroBeta Microplate Counter (PerkinElmer, Rodgau, Germany).

LNCaP cancer cells = type: cell-based, human; details: 48 h
Protocol: as §1

[1] = Dynamic PET imaging, tumor uptake in LNCaP xenografts; type: in vivo, mouse; details: male, BALB/c Nude, mouse, in vivo, iv, total radioactivity
Protocol: (§2) For PET experiments and as prostate cancer xenograft models, male PC3 and LNCaP tumor-bearing BALB/c Nude mice were used (body weight: 22−24 g, Charles River Laboratories, Saint-Constant, QC, Canada). To generate the tumor xenografts, about 5−6 × 10^6 PC3 cells in 100 μL of PBS or 20−25 × 10^6 LNCaP cells in 200 μL of PBS/Matrigel (50/50) were subcutaneously injected into the left shoulder of male BALB/c Nude mice. For the androgen-dependent LNCaP model, a 1.5 mg pellet containing dehydroepiandrosterone DHEA (60-day release; Innovative Research of America, Sarasota, FL, U.S.A.) was implanted subcutaneously into the upper right flank shortly before LNCaP cell injection. PC3 tumors and LNCaP tumors reached sizes of ∼300−500 mm^3 after 3−5 weeks and 6−8 weeks, respectively, and were used for the in vivo experiments. PET imaging of E5B9-^68Ga-NOTA-BBN2 monomeric and dimeric TMs was performed on an INVEON® PET/CT scanner (Siemens Preclinical Solutions, Knoxville, TN, USA). Prior to radiotracer injection, mice were anesthetized through inhalation of isoflurane in 40% oxygen/60% nitrogen (gas flow 1 L/min), and body temperature was kept constant at 37 °C. The mice were placed in a prone position in the center of the field of view. A transmission scan for attenuation correction was not acquired. Mice were injected with 4−8 MBq of E5B9-^68Ga-NOTA-BBN2 or E5B9-^68Ga-NOTA-(BBN2)2 in 150 μL 10% EtOH/saline solution through a tail vein catheter. For blocking studies, PC3- and LNCaP-tumor-bearing […] mice were pre-dosed i.v. with 300 μg of Ava-BBN2 (15 min prior to radiotracer injection) in 50 uL saline. Data acquisition was performed over 60 min in 3D list mode. The dynamic list mode data were sorted into sinograms with 54 time frames (10 × 2, 8 × 5, 6 × 10, 6 × 20, 8 × 60, 10 × 120, 6 × 300 s). The frames were reconstructed using maximum a posteriori (MAP) as the reconstruction mode. No correction for partial volume effects was applied. The image files were processed using the ROVER v2.0.51 software (ABX GmbH, Radeberg, Germany). […] ROIs covered all visible tumor mass of the subcutaneous tumors, and the thresholds were defined by 50% of the maximum radioactivity uptake level. Mean standardized uptake values [SUVmean = (activity/mL tissue)/(injected activity/body weight), […]] were calculated for each ROI, and time−activity curves (TACs) were generated. For each experimental group (different radiotracers and mouse tumor models as well as control and blocking experiments), n = 3–6 mice were measured. […] Blocking experiments were conducted in the same mice: first, a control scan was measured and then repeated 1–2 days after in the presence of a blocking concentration of 300 μg of Ava-BBN2. All semi-quantified PET data are presented as means ± SEM. […]

[2] = Dynamic PET imaging, tumor uptake in PC3 xenografts; type: in vivo, mouse; details: male, BALB/c Nude, mouse, in vivo, iv, total radioactivity
Protocol: as §2

PC3 tumors = assay: as above; type: in vivo, mouse; details: PC3 tumors, pre-dosing i.v. with 300 µg Ava-BBN2 15 min before radiotracer, n = 3, p < 0.05
Protocol: as §2

[3] = competition against 125I-Tyr4-bombesin (0.05 nM) in PC3 cells, 2 h at 4 °C, triplicates, gamma counter, mean ± SEM, read-out: IC50 (competition binding to GRPR)

T1 sequence (P30550 whole entry): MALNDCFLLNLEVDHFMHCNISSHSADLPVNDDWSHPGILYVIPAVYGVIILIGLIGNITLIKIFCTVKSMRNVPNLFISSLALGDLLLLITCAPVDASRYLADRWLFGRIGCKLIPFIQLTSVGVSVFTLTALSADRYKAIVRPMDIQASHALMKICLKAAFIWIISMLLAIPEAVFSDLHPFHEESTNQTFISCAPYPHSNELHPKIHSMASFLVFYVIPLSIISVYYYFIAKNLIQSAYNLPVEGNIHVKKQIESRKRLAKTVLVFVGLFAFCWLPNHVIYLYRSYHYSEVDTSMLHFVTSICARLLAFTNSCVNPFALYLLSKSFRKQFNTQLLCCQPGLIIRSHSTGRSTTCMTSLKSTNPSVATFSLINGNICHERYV

SMILES | IC50 (GRPR; [3]) [nM] | SUV at 1 h [1] [SUV] | SUV at 1 h [2] [SUV] | further results
CC[C@H](C)[C@@H](CCC(=O)N[C@H](C(N)=O)C(C)(C)C)NC(=O)[C@H](Cc1c[nH]cn1)NC(=O)CN(C)C(=O)[C@@H](NC(=O)[C@H](C)NC(=O)[C@H](Cc1c[nH]c2ccccc12)NC(=O)[C@H](CCC(N)=O)NC(=O)CCCCNC(=O)CC[C@H](NC(=O)[C@H](CCCCn1nnc2c1-c1ccccc1CN(C(=O)CCNC(=O)CCOCCOCCOCCOCCNC(=O)CCN1C(=O)CC(SC[C@H](NC(=O)[C@H](Cc3ccc(O)cc3)NC(=O)[C@H](CCC(=O)O)NC(=O)[C@H](CC(=O)O)NC(=O)[C@@H](NC(=O)[C@@H](NC(=O)[C@H](CCC(=O)O)NC(=O)[C@@H]3CCCN3C(=O)[C@H](CC(C)C)NC(=O)[C@@H]3CCCN3C(=O)[C@H](CCCCN)NC(=O)[C@@H](N)CO)C(C)C)[C@@H](C)O)C(=O)O)C1=O)c1ccccc1-2)NC(=O)CCCCNC(=S)Nc1ccc(C[C@H]2CN(CC(=O)O)CCN(CC(=O)O)CCN2CC(=O)O)cc1)C(=O)NCCCCC(=O)N[C@@H](CCC(N)=O)C(=O)N[C@@H](Cc1c[nH]c2ccccc12)C(=O)N[C@@H](C)C(=O)N[C@H](C(=O)N(C)CC(=O)N[C@@H](Cc1c[nH]cn1)C(=O)N[C@H](CCC(=O)N[C@H](C(N)=O)C(C)(C)C)[C@@H](C)CC)C(C)C)C(C)C (stereo partly shown) [E5B9-NOTA-(BBN2)2 TM] | 0.7 ± 0.1 |  |  | 
CC[C@H](C)[C@@H](CCC(=O)N[C@H](C(N)=O)C(C)(C)C)NC(=O)[C@H](Cc1c[nH]cn1)NC(=O)CN(C)C(=O)[C@@H](NC(=O)[C@H](C)NC(=O)[C@H](Cc1c[nH]c2ccccc12)NC(=O)[C@H](CCC(N)=O)NC(=O)[C@H](CCCCn1nnc2c1-c1ccccc1CN(C(=O)CCNC(=O)CCOCCOCCOCCOCCNC(=O)CCN1C(=O)CC(SC[C@H](NC(=O)[C@H](Cc3ccc(O)cc3)NC(=O)[C@H](CCC(=O)O)NC(=O)[C@H](CC(=O)O)NC(=O)[C@@H](NC(=O)[C@@H](NC(=O)[C@H](CCC(=O)O)NC(=O)[C@@H]3CCCN3C(=O)[C@H](CC(C)C)NC(=O)[C@@H]3CCCN3C(=O)[C@H](CCCCN)NC(=O)[C@@H](N)CO)C(C)C)[C@@H](C)O)C(=O)O)C1=O)c1ccccc1-2)NC(=O)CCCCNC(=S)Nc1ccc(C[C@H]2CN(CC(=O)O)CCN(CC(=O)O)CCN2CC(=O)O)cc1)C(C)C (stereo partly drawn) [E5B9-NOTA-BBN2 TM] (I: H-SKPLPEVTDEYC-OH / II: {NOTA(2S-Bn(4-NHCS))-Ava}-[X1]QWAV[Sar]H[γ4hIle][Tle]-NH2; linker I:12-II:1 via X2) | 190 ± 0.04 |  |  | EC50 (PC3 cancer cells): 32 nM; EC50 (LNCaP cancer cells): 29.8 nM
CSCC[C@H](NC(=O)[C@H](CC(C)C)NC(=O)[C@H](Cc1c[nH]cn1)NC(=O)CNC(=O)[C@@H](NC(=O)[C@H](C)NC(=O)[C@H](Cc1c[nH]c2ccccc12)NC(=O)[C@H](Cc1c[nH]cn1)NC(=O)[C@H](CC(N)=O)NC(=O)CNC(=O)[C@H](CCCN=C(N)N)NC(=O)[C@@H]1CCCN1C(=O)[C@H](Cc1ccc(O)cc1)NC(=O)[C@H](CCSC)NC(=O)[C@H](CCCCN)NC(=O)[C@@H](NC(=O)[C@H](CC(C)C)NC(=O)[C@@H](NC(=O)[C@@H](NC(=O)CNC(=O)CNC(=O)CNC(=O)[C@H](C)NC(=O)[C@@H]1CCCN1C(=O)[C@H](CC(C)C)NC(=O)[C@@H]1CCCN1C(=O)[C@@H](N)C(C)C)[C@@H](C)O)C(C)C)[C@@H](C)O)C(C)C)C(N)=O [GRP, gastrin-releasing peptide, reference compound] |  |  |  | IC50 (GRPR): 0.15 ± 0.05 nM
CC[C@H](C)[C@@H](CCC(=O)N[C@H](C(N)=O)C(C)(C)C)NC(=O)[C@H](Cc1c[nH]cn1)NC(=O)CN(C)C(=O)[C@@H](NC(=O)[C@H](C)NC(=O)[C@H](Cc1c[nH]c2ccccc12)NC(=O)[C@H](CCC(N)=O)NC(=O)CCCCNC(=S)Nc1ccc(C[C@H]2CN(CC(=O)O)CCN(CC(=O)O)CCN2CC(=O)O)cc1)C(C)C [^68Ga-NOTA-BBN2, metal not drawn, reference compound] ({NOTA(2S-Bn(4-NHCS))-Ava}-QWAV[Sar]H[γ4hIle][Tle]-NH2; N-terminus and C-terminus assumed) |  | 0.38 ± 0.02 | 0.46 ± 0.05 | 
CC[C@H](C)[C@@H](CCC(=O)N[C@H](C(N)=O)C(C)(C)C)NC(=O)[C@H](Cc1c[nH]cn1)NC(=O)CN(C)C(=O)[C@@H](NC(=O)[C@H](C)NC(=O)[C@H](Cc1c[nH]c2ccccc12)NC(=O)[C@H](CCC(N)=O)NC(=O)[C@H](CCCCn1nnc2c1-c1ccccc1CN(C(=O)CCNC(=O)CCOCCOCCOCCOCCNC(=O)CCN1C(=O)CC(SC[C@H](NC(=O)[C@H](Cc3ccc(O)cc3)NC(=O)[C@H](CCC(=O)O)NC(=O)[C@H](CC(=O)O)NC(=O)[C@@H](NC(=O)[C@@H](NC(=O)[C@H](CCC(=O)O)NC(=O)[C@@H]3CCCN3C(=O)[C@H](CC(C)C)NC(=O)[C@@H]3CCCN3C(=O)[C@H](CCCCN)NC(=O)[C@@H](N)CO)C(C)C)[C@@H](C)O)C(=O)O)C1=O)c1ccccc1-2)NC(=O)CCCCNC(=S)Nc1ccc(C[C@H]2CN(CC(=O)O)CCN(CC(=O)O)CCN2CC(=O)O)cc1)C(C)C (stereo partly drawn) [monomeric ^68Ga-BBN2 TM, metal not drawn] (I: H-SKPLPEVTDEYC-OH / II: {NOTA(2S-Bn(4-NHCS))-Ava}-[X1]QWAV[Sar]H[γ4hIle][Tle]-NH2; linker I:12-II:1 via X2) |  | 0.44 ± 0.11 | 0.44 ± 0.01 | in vivo blocking of tumor uptake (PC3 tumors): 39 ± 9%
